Converted amounts (≈) assume the structure as drawn. Like-named read-outs stand apart in the source and are kept apart here.
Key:
Format in all cases: cell-based
P. aeruginosa ATCC 27853 = experiment: MIC (broth microdilution or agar dilution, CLSI)
Procedure, shortened: (§1)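 MICs follow CLSI broth microdilution or agar dilution, testing typically 128-0.06 μg/mL compound at 2.5% final DMSO, in triplicate with clindamycin comparator. Non-anaerobic strains use CaMHB at a final inoculum of 5×10^5 CFU/mL; anaerobes like C. difficile and C. scindens use specialized procedures.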

E. faecium Line R & VRE = experiment: MIC (broth microdilution or agar dilution, CLSI)
Procedure, shortened: as §1

P. aeruginosa ΔAmex OprM = experiment: MIC (broth microdilution or agar dilution, CLSI)
Procedure, shortened: as §1

K. oxytoca Clinical = experiment: MIC (broth microdilution or agar dilution, CLSI)
Procedure, shortened: (§2)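 Isolates other than streptococci and anaerobes, which had their own procedures, were grown overnight at 35° C on tryptic soy agar with 5% sheep blood. Suspensions were then diluted to a final inoculum of 5×10^5 CFU/mL in broth microdilution wells.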

E. faecalis ATCC 29212 = experiment: MIC (broth microdilution or agar dilution, CLSI)
Procedure, shortened: as §2

S. aureus hVISA = experiment: MIC (broth microdilution or agar dilution, CLSI)
Procedure, shortened: as §2

A. baumannii ATCC 19606 = experiment: MIC (broth microdilution or agar dilution, CLSI)
Procedure, shortened: as §2

E. faecalis VRE [1] = experiment: MIC (CLSI), third E. faecalis VRE line of Table 4; details: Enterococcus faecalis, VRE
Description: (§3) Minimum inhibitory concentrations (MICs) were determined by broth microdilution method or agar dilution method following the Clinical and Laboratory Standards Institute guidelines. Standard bacterial strains were obtained from American Type Culture Collection (ATCC). Other bacterial strains were obtained from hospitals and commercial sources, so noted in Table 11. Before the start of the MIC experiment, standard and test compound stock solutions were prepared in dimethyl sulfoxide (DMSO, Aldrich D2650) at a stock concentration of 5,120 μg/mL. The compound concentration range typically employed for each experiment was 128-0.06 μg/mL (2.5% final DMSO concentration). Clindamycin was used as a comparator in all experiments and each experiment was performed in triplicate. Specialized procedures were employed for streptococcal and anaerobic strains. All other bacterial strains were sub-cultured on blood agar plates (tryptic soy agar with 5% sheep blood, Hardy Diagnostics) and incubated overnight at 35° C. Organisms were suspended in cation-adjusted Mueller-Hinton broth (CaMHB, BD 212322) and optical density was adjusted to 0.5 McFarland standard. Suspensions were further diluted to obtain a final inoculum of 5×10^5 CFU/mL for broth microdilution experiments.

C. difficile ATCC 700057 = experiment: MIC (broth microdilution or agar dilution, CLSI)
Procedure, shortened: as §1

E. faecium VRE = experiment: MIC (broth microdilution or agar dilution, CLSI); details: Enterococcus faecium, VRE
Procedure, shortened: as §1

S. aureus MRSA = experiment: MIC (broth microdilution or agar dilution, CLSI); details: Staphylococcus aureus
Procedure, shortened: as §1

[2] = test system: E. coli MP-74 LptD mutant; experiment: MIC (broth microdilution or agar dilution, CLSI); details: Escherichia coli
Procedure, shortened: as §1

C. scindens ATCC 35704 = experiment: MIC (broth microdilution or agar dilution, CLSI)
Procedure, shortened: as §1

S. aureus cErmA = experiment: MIC (broth microdilution or agar dilution, CLSI); details: Staphylococcus aureus
Procedure, shortened: as §1

E. faecium Clinical VRE = experiment: MIC (broth microdilution or agar dilution, CLSI); details: Enterococcus faecium, VRE
Procedure, shortened: as §1

B. fragilis ATCC 25285 = experiment: MIC (broth microdilution or agar dilution, CLSI); details: Bacteroides fragilis, read-out: MIC
Procedure, shortened: as §1

E. faecalis VRE [3] = experiment: MIC (CLSI), second E. faecalis VRE line of Table 4; details: Enterococcus faecalis, VRE
Description: as §3

Escherichia coli c-ermB = experiment: MIC, clinically derived E. coli with acquired resistance; details: Escherichia coli
Description: as §3

E. coli strain SQ110DTC = experiment: MIC in LB medium against E. coli SQ110DTC and its FSA-513018b-resistant mutants (Table 14); details: Escherichia coli
[4] = Enterococcus faecium, E. faecium HAV#319, Line R & Vanco R, read-out: MIC
[5] = Klebsiella oxytoca, K. oxytoca HAV#450, Clinical, read-out: MIC
[6] = Enterococcus faecalis, ATCC29212, E. faecalis HAV#005, ATCC 29212, read-out: MIC
[7] = Staphylococcus aureus, S. aureus HAV#204, hVISA, read-out: MIC
[8] = P. aeruginosa HAV#009, ATCC 27853
[9] = E. faecium HAV#319, Line R & Vanco R
[10] = P. aeruginosa HAV#039, ΔAmex OprM
[11] = A. baumanii HAV#010, ATCC 19606

Q: `CO/N=C(\C(=O)N[C@@H]1C(=O)N2C(C(=O)O)=C(CSc3nc(=O)c(=O)[nH]n3C)CS[C@H]12)c1csc(N)n1` [Ceftriaxone] was tested. Which MIC (P. aeruginosa ATCC 27853; Pseudomonas aeruginosa, ATCC27853, P. aeruginosa HAV#009, ATCC 27853, read-out: MIC) did it give?
A: > 64 µg/mL

Q: What about the MIC (E. faecium Line R & VRE; [4]) of the same molecule?
A: > 256 µg/mL

Q: What about the MIC (P. aeruginosa ΔAmex OprM; Pseudomonas aeruginosa) of the same molecule?
A: 16 µg/mL (≈ 28.9 µM)

Q: What about the MIC (K. oxytoca Clinical; [5]) of the same molecule?
A: 64 µg/mL (≈ 115 µM)

Q: With `CC[C@H]1OC(=O)[C@H](C)[C@@H](O[C@H]2C[C@@](C)(OC)[C@@H](O)[C@H](C)O2)[C@H](C)[C@@H](O[C@@H]2O[C@H](C)C[C@H](N(C)C)[C@H]2O)[C@](C)(O)C[C@@H](C)CN(C)[C@H](C)[C@@H](O)[C@]1(C)O` [Azithromycin] as the molecule, how does the MIC (E. faecium Line R & VRE; [4]) read?
A: 8 µg/mL (≈ 10.7 µM)

Q: What about the MIC (E. faecalis ATCC 29212; [6]) of the same molecule?
A: 8 µg/mL (≈ 10.7 µM)

Q: And the MIC (K. oxytoca Clinical; [5])?
A: 16 µg/mL (≈ 21.4 µM)

Q: What about the MIC (S. aureus hVISA; [7]) of the same molecule?
A: > 64 µg/mL

Q: And the MIC (A. baumannii ATCC 19606; Acinetobacter baumannii, ATCC19606, A. baumanii HAV#010, ATCC 19606, read-out: MIC)?
A: 64 µg/mL (≈ 85.4 µM)

Q: What does the source list for Gentamicin?
A: MIC (P. aeruginosa ATCC 27853; [8]): >64 µg/mL; MIC (E. faecium Line R & VRE; [9]): 64 µg/mL; MIC (P. aeruginosa ΔAmex OprM; [10]): >64 µg/mL; MIC (E. faecalis ATCC 29212; E. faecalis HAV#005, ATCC 29212): 16 µg/mL; MIC (K. oxytoca Clinical; K. oxytoca HAV#450, Clinical): 4 µg/mL; MIC (S. aureus hVISA; S. aureus HAV#204, hVISA): >64 µg/mL; MIC (A. baumannii ATCC 19606; [11]): >64 µg/mL

Q: How did the MIC (E. faecalis ATCC 29212; [6]) turn out when `C[C@H]1c2cccc(O)c2C(=O)C2=C(O)[C@]3(O)C(=O)C(C(N)=O)=C(O)[C@@H](N(C)C)[C@@H]3[C@@H](O)[C@@H]21` [Doxycycline] was run?
A: 4 µg/mL (≈ 9 µM)

Q: And the MIC (K. oxytoca Clinical; [5])?
A: 8 µg/mL (≈ 18 µM)

Q: What about the MIC (S. aureus hVISA; [7]) of the same molecule?
A: 16 µg/mL (≈ 36 µM)

Q: Which results are given for `CCC[C@@H]1C[C@@H](C(=O)N[C@@H]([C@H]2O[C@H](SC)[C@H](O)[C@@H](O)[C@H]2O)[C@H](C)Cl)N(C)C1` [Clindamycin, clindamycin, reference compound]?
A: MIC (E. faecalis VRE [1]): > 128 µg/mL; MIC (C. difficile ATCC 700057; C. difficile HAV#011, ATCC 700057): 8 µg/mL (≈ 18.8 µM); MIC (C. difficile ATCC 700057; Clostridioides difficile, ATCC700057, C. difficile ATCC 700057, read-out: MIC): 8 µg/mL (≈ 18.8 µM); MIC (E. faecium VRE): > 128 µg/mL; MIC (P. aeruginosa ATCC 27853; [8]): >128 µg/mL; MIC (P. aeruginosa ATCC 27853; Pseudomonas aeruginosa, ATCC27853): > 128 µg/mL; MIC (S. aureus MRSA): 0.25 µg/mL (≈ 0.588 µM); MIC [2]: 4 µg/mL (≈ 9.41 µM); MIC (E. faecium Line R & VRE; [9]): >128 µg/mL; MIC (E. faecium Line R & VRE; Enterococcus faecium): > 128 µg/mL; MIC (C. scindens ATCC 35704; C. scindens HAV#012, ATCC 35704): 2 µg/mL (≈ 4.71 µM); MIC (C. scindens ATCC 35704; [Clostridium] scindens, ATCC35704, C. scindens ATCC 35704, read-out: MIC): 2 µg/mL (≈ 4.71 µM); MIC (P. aeruginosa ΔAmex OprM; [10]): 32 µg/mL (≈ 75.3 µM); MIC (P. aeruginosa ΔAmex OprM; Pseudomonas aeruginosa): 32 µg/mL (≈ 75.3 µM); MIC (S. aureus cErmA): > 128 µg/mL; MIC (E. faecium Clinical VRE): > 128 µg/mL; MIC (B. fragilis ATCC 25285; ATCC25285, B. fragilis ATCC 25285): 1 µg/mL (≈ 2.35 µM); MIC (B. fragilis ATCC 25285; ATCC25285, B. fragilis HAV#013, ATCC 25285): 0.5 µg/mL (≈ 1.18 µM); MIC (E. faecalis VRE [3]): > 128 µg/mL; MIC (Escherichia coli c-ermB): > 128 µg/mL; MIC (E. faecalis ATCC 29212; Enterococcus faecalis, ATCC29212, E. faecalis ATCC 29212, read-out: MIC): 16 µg/mL (≈ 37.6 µM); MIC (E. faecalis ATCC 29212; [6]): 16 µg/mL (≈ 37.6 µM); MIC (K. oxytoca Clinical; K. oxytoca HAV#450, Clinical): >128 µg/mL; MIC (K. oxytoca Clinical; Klebsiella oxytoca): > 128 µg/mL; MIC (S. aureus hVISA; S. aureus HAV#204, hVISA): >128 µg/mL; MIC (S. aureus hVISA; Staphylococcus aureus): > 128 µg/mL; MIC (A. baumannii ATCC 19606; [11]): >128 µg/mL; MIC (A. baumannii ATCC 19606; Acinetobacter baumannii, ATCC19606): > 128 µg/mL; MIC (E. coli strain SQ110DTC; E. coli SQ110DTC, WT): 16 µg/mL (≈ 37.6 µM); MIC (E. coli strain SQ110DTC; clone SA-3R1, mutation 2058G, selection plate 1 μg/mL FSA-513018b): > 128 µg/mL; MIC (E. coli strain SQ110DTC; clone SA-3R2, mutation 2059G, selection plate […] FSA-513018b): > 128 µg/mL; MIC (E. coli strain SQ110DTC; clone SA-3R9, mutation 2058G, selection plate […] FSA-513018b): > 128 µg/mL; MIC (E. coli strain SQ110DTC; clone SA-3R13, mutation 2059G, selection plate 1 μg/mL FSA-513018b): > 128 µg/mL

From patent publication US20230203081A1, “LINCOSAMIDE ANTIBIOTICS AND USES THEREOF” (President and Fellows of Harvard College, priority 2020, published 2023)
